Data from PMC5944028, “Nonclinical and clinical pharmacological characterization of the potent and selective cathepsin K inhibitor MIV-711” (Journal of Translational Medicine, 2018).
Read-outs that look alike come from different tables or passages of the source.

Legend:
mouse cathepsin K = target: T1, mouse cathepsin K (Mus musculus, UniProt P55097); assay: Recombinant enzyme assay, mouse cathepsin K; assay type: biochemical; details: footnote a: IC50
T1 construct: made in house; host or cells: E. coli
T1 sequence (P55097 115-329): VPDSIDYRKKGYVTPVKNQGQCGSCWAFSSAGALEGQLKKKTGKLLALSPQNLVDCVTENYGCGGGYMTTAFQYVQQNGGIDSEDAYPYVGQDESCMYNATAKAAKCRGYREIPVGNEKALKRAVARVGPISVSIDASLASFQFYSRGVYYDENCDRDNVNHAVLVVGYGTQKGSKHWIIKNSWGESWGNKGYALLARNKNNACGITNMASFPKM
Text: Recombinant cathepsin K enzymes from all species were expressed in E. coli, purified and activated. Human cathepsin F and cathepsin S were expressed in Baculovirus, purified and activated. Purified human cathepsins B and H (Athens Research Technology), cathepsin L (Calbiochem), and cathepsin V (R & D Systems) were purchased.
H-D-Ala_Leu-Lys-AMC was used as the substrate in assays of cathepsin K from non-rodent species (human, dog, rabbit and guinea pig), and Z-Leu-Arg-AMC was used as the substrate in assays of cathepsin K from rodent species (mouse and rat). […]
Assays were carried out in white polystyrene 96-well plates in a final volume of 100 µL. […] Plates were read in a Fluoroskan Ascent (Thermo Labsystems, Helsinki, Finland) in kinetic mode, with excitation and emission filters of 390 and 460 nm, respectively. Rates were determined by linear regression of the fluorescence/time data in Excel. Rates were fitted by non-linear regression to either the competitive inhibition equation, with the substrate concentration fixed at the value in the assay and the KM fixed to the value previously determined, or the IC50 equation using GraphPad Prism (GraphPad, version 6, San Diego, USA) to obtain Ki or IC50 values, respectively.

[1] = Monkey plasma pharmacokinetics, single oral dose; assay type: in vivo, cynomolgus monkeys (Macaca fascicularis); details: for AUC0–t / AUCinf / Cmax / Cmax/dose / t½: geometric mean (CV%); for tmax: median (min–max)
Procedure: Eight cynomolgus monkeys (Macaca fascicularis) were used for measuring plasma levels of MIV-711 and CTX-I after a single dose. The animals were healthy young males, approximately 2–4 years old and weighing 3–4 kg. Experiments were performed at Covance Ltd (Harrogate, UK). The monkeys were used over an extended period of time (up to a year) and several cathepsin K inhibitors were evaluated during this time. At least 1 week was allowed for washout in between experiments. This was not believed to affect the results with MIV-711, and vehicle controls were run on a regular basis when appropriate. Each animal received at least one dose of MIV-711 and one dose of vehicle with at least 1 week of washout in between treatments.
In single dose experiments, animals were dosed with vehicle or MIV-711 (3–30 µmol/kg) via oral gavage at a dose volume of 4 mL/kg between 7:30 and 9:00 a.m. Blood samples were collected at baseline, 30 min, 1, 2, 4, 8, 12, 24 and 48 h after dose from the femoral vein and transferred into lithium heparin anticoagulant tubes. The samples were centrifuged and the two aliquots of the resultant plasma were frozen at − 70 °C. All samples were processed and stored within 30 min of collection. The aliquots were used to determine the MIV-711 concentration and CTX-I levels, respectively. [drawing 1]
The quantification of MIV-711 in monkey plasma was performed by taking 10–50 µL of plasma and mixing with 3 volumes of acetonitrile (10 s, Vibrofix). The sample was centrifuged (10 min, 20,000×g, 7 °C) and 5 µL of the supernatant was injected onto the liquid chromatography with tandem mass spectrometric detection (LC–MS/MS) system. The lowest concentration of the standard curves and the lower limit of quantification (LLOQ) was 1 nmol/L of MIV-711. The human plasma samples were prepared by protein precipitation for sample extraction followed by LC–MS/MS. The lowest concentration of the standard curves and the LLOQ was 4 nmol/L of MIV-711 using 25 µL of plasma.

urinary CTX-II = details: cited from earlier work
[2] = test system: differentiated human osteoclasts; design: method as in PMID 20097319; details: bovine bone slices; read-out: IC50 in bone resorption assay; cited from earlier work

With `C#C[C@@H]1CN(C(=O)[C@H](CC(C)C)NC(=O)c2ccc(-c3nc(N4CCN(C)CC4)sc3F)cc2)[C@@H]2C(=O)CO[C@H]12` [MIV-711] the IC50 (mouse cathepsin K) was 1000 nM, the “AUC0–t” value ([1]; 3 µmol/kg p.o. single dose) was 0.400 (60) µmol/L × h and the AUCinf ([1]; 3 µmol/kg p.o. single dose) was 0.409 (62) µmol/L × h. For the same compound, the Cmax ([1]; 3 µmol/kg p.o. single dose) was 102 nM, the Cmax/dose ([1]; 3 µmol/kg p.o. single dose) was 0.034 (65) and the t½ ([1]; 3 µmol/kg p.o. single dose) was 2.1 (16) h. The tmax ([1]; 3 µmol/kg p.o. single dose) was 2.0 (2.0–2.0) h, the “AUC0–t” value ([1]; 10 µmol/kg p.o. single dose) was 0.881 (52) µmol/L × h and the AUCinf ([1]; 10 µmol/kg p.o. single dose) was 0.932 (46) µmol/L × h. For the same compound, the Cmax ([1]; 10 µmol/kg p.o. single dose) was 164 nM, the Cmax/dose ([1]; 10 µmol/kg p.o. single dose) was 0.016 (41) and the t½ ([1]; 10 µmol/kg p.o. single dose) was 3.1 (52) h. The tmax ([1]; 10 µmol/kg p.o. single dose) was 2.0 (0.50–4.0) h, the “AUC0–t” value ([1]; 30 µmol/kg p.o. single dose) was 6.21 (62) µmol/L × h and the AUCinf ([1]; 30 µmol/kg p.o. single dose) was 6.28 (62) µmol/L × h. The Cmax ([1]; 30 µmol/kg p.o. single dose) was 923 nM, the Cmax/dose ([1]; 30 µmol/kg p.o. single dose) was 0.031 (56) and the t½ ([1]; 30 µmol/kg p.o. single dose) was 3.4 (30) h. For the same compound, the tmax ([1]; 30 µmol/kg p.o. single dose) was 2.0 (1.0–4.0) h, the “Plasma concentration at 24 h post-dose” value ([1]; highest dose group (30 µmol/kg p.o.)) was “approximately 10 nmol/L” and the “Plasma concentration at 24 h post-dose” value ([1]; lowest dose group (3 µmol/kg p.o.), below LLOQ) was < 1 nM. For the same compound, the “Reduction of urinary CTX-II” value (urinary CTX-II; healthy subjects, 200 mg daily for 7 days) was 72%, the “Reduction of urinary CTX-II” value (urinary CTX-II; postmenopausal women, 100 mg once daily for 1 month) was 55% and the IC50 [2] was 37 nM.
